# Laboratory results reported in publication PMC6271009, “Design and Synthesis of Thiazolo[5,4-f]quinazolines as DYRK1A Inhibitors, Part II” (Molecules, 2014).
# Legend:
# [1] = target: T1, DYRK1A (Homo sapiens, UniProt Q13627); assay: DYRK1A kinase assay, Reaction Biology Corporation HotSpot technology (33P ATP); type: biochemical; conditions: for IC50: purified recombinant kinase, 10 µM ATP, 120 min, room temperature
# T1 construct: Purified recombinant kinase was incubated with serial 3-fold dilutions of test compounds; purchased Reaction Biology Corporation
# [2] = target: T2, DYRK1B (Homo sapiens, UniProt Q9Y463); assay: DYRK1B kinase assay, Reaction Biology Corporation HotSpot technology (33P ATP); type: biochemical; conditions: purified recombinant kinase, 10 µM ATP, 120 min, room temperature
# T2 construct: Purified recombinant kinase was incubated with serial 3-fold dilutions of test compounds; purchased Reaction Biology Corporation
# [3] = tested on: patient-derived ovarian cancer ascites spheroids; conditions: cited from earlier work
# [4] = tested on: Panc1 xenograft; conditions: cited from earlier work
# [5] = tested on: B- and T-ALL cell lines and primary human pediatric ALL samples; parameters: method as in doi:10.1182/blood-2013-06-507368; conditions: cited from earlier work
# T2 sequence (Q9Y463 whole entry): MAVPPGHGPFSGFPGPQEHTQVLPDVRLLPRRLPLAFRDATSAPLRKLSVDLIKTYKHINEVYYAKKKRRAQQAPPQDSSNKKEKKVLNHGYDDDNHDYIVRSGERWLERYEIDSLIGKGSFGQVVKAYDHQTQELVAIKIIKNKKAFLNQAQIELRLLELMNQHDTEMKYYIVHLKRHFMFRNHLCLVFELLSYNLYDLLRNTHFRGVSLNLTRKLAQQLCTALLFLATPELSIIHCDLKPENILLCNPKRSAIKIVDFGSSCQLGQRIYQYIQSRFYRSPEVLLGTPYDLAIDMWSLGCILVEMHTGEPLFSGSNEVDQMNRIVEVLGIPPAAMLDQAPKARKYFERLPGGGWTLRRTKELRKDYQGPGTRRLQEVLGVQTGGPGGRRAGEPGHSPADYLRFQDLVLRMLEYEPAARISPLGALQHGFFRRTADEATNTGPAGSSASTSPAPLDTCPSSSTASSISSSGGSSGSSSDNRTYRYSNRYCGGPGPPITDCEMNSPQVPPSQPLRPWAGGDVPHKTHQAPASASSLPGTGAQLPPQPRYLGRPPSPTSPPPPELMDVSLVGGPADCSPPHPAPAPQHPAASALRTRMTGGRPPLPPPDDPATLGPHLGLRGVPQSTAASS
SMILES,IC50 [1],IC50 [2],further results
"COC(=N)c1nc2ccc3ncnc(Nc4ccc(OC)cc4)c3c2s1 [Compound 7a, Methyl 9-(4-methoxyphenylamino)thiazolo[5,4-f]quinazoline-2-carbimidate]",13.1 nM,19.2 nM,
"COC(=N)c1nc2ccc3ncnc(Nc4ccc5c(c4)OCO5)c3c2s1 [Compound 7b, methyl 9-(benzo[d][1,3]dioxol-5-ylamino)thiazolo[5,4-f]quinazoline-2-carbimidate]",,4.2 nM,
"COC(=N)c1nc2ccc3ncnc(Nc4ccc5c(c4)OCCO5)c3c2s1 [Compound 7c, Methyl 9-(2,3-dihydrobenzo[b][1,4]dioxin-6-ylamino)thiazolo[5,4-f]quinazoline-2-carbimidate]",8 nM,,
"COC(=N)c1nc2ccc3ncnc(Nc4ccc(OC)c(OC)c4)c3c2s1 [Compound 7e, Methyl 9-(3,4-dimethoxyphenylamino)thiazolo[5,4-f]quinazoline-2-carbimidate]",,161 nM,
"COC(=N)c1nc2ccc3ncnc(Nc4ccc(OC)cc4OC)c3c2s1 [Compound 7f, Methyl 9-(2,4-dimethoxyphenylamino)thiazolo[5,4-f]quinazoline-2-carbimidate]",9.53 nM,11.1 nM,
"COC(=N)c1nc2ccc3ncnc(Nc4cc(OC)cc(OC)c4)c3c2s1 [Compound 7g, Methyl 9-(3,5-dimethoxyphenylamino)thiazolo[5,4-f]quinazoline-2-carbimidate]",299 nM,,
"COC(=N)c1nc2ccc3ncnc(Nc4ccc(OC)c([N+](=O)[O-])c4)c3c2s1 [Compound 7h, Methyl 9-(4-methoxy-3-nitrophenylamino)thiazolo[5,4-f]quinazoline-2-carbimidate]",124 nM,,
"COC(=N)c1nc2ccc3ncnc(Nc4ccc(O)c([N+](=O)[O-])c4)c3c2s1 [Compound 7k, Methyl 9-(4-hydroxy-3-nitrophenylamino)thiazolo[5,4-f]quinazoline-2-carbimidate]",4.91 nM,5.68 nM,
"COC(=N)c1nc2ccc3ncnc(Nc4cc(OC)c(OC)c(OC)c4)c3c2s1 [Compound 7l, Methyl 9-(3,4,5-trimethoxyphenylamino)thiazolo[5,4-f]quinazoline-2-carbimidate]",436 nM,486 nM,
"COC(=N)c1nc2ccc3ncnc(Nc4ccc(Cl)cc4)c3c2s1 [Compound 8a, Methyl 9-(4-chlorophenylamino)thiazolo[5,4-f]quinazoline-2-carbimidate]",1.13 nM,4.74 nM,
"COC(=N)c1nc2ccc3ncnc(Nc4cccc(Cl)c4)c3c2s1 [Compound 8b, Methyl 9-(3-chlorophenylamino)thiazolo[5,4-f]quinazoline-2-carbimidate]",13.6 nM,18.8 nM,
"COC(=N)c1nc2ccc3ncnc(Nc4ccc(Cl)cc4Cl)c3c2s1 [Compound 8c, Methyl 9-(2,4-dichlorophenylamino)thiazolo[5,4-f]quinazoline-2-carbimidate]",0.22 nM,0.28 nM,Activity in patient-derived ovarian cancer ascites spheroids [3]: promising activities; Toxicity in mice (Panc1 xenograft model) [4]: without detectable toxicity; In vivo activity in Panc1 xenograft model ([4]; mice): in vivo activities
"COC(=N)c1nc2ccc3ncnc(Nc4ccc(Cl)c(Cl)c4)c3c2s1 [Compound 8d, Methyl 9-(3,4-dichlorophenylamino)thiazolo[5,4-f]quinazoline-2-carbimidate]",66.8 nM,,
"COC(=N)c1nc2ccc3ncnc(Nc4ccc(F)cc4)c3c2s1 [Compound 8e, Methyl 9-(4-fluorophenylamino)thiazolo[5,4-f]quinazoline-2-carbimidate]",6.06 nM,9.64 nM,
"COC(=N)c1nc2ccc3ncnc(Nc4ccc(Br)cc4F)c3c2s1 [Compound 8f, Methyl 9-(4-bromo-2-fluorophenylamino)thiazolo[5,4-f]quinazoline-2-carbimidate]",3.6 nM,6.55 nM,
"COC(=N)c1nc2ccc3ncnc(Nc4ccc(OC)cc4F)c3c2s1 [Compound 8i, Methyl 9-(2-fluoro-4-methoxyphenylamino)thiazolo[5,4-f]quinazoline-2-carbimidate]",,,Apoptosis induction in B- and T-ALL cell lines and primary human pediatric ALL samples [5]: dose-dependently induce apoptosis; Apoptosis of primary ALL cells resistant to cytarabine ([5]; cytarabine-resistant primary ALL cells): induced apoptosis

SMILES,IC50 [1],IC50 [2],further results
"COC(=N)c1nc2ccc3ncnc(Nc4ccc(O)c(F)c4)c3c2s1 [Compound 8j, Methyl 9-(3-fluoro-4-hydroxyphenylamino)thiazolo[5,4-f]quinazoline-2-carbimidate]",8.63 nM,11 nM,
"COC(=N)c1nc2ccc3ncnc(Nc4ccc(F)cc4F)c3c2s1 [Compound 8k, Methyl 9-(2,4-difluorophenylamino)thiazolo[5,4-f]quinazoline-2-carbimidate]",0.94 nM,1.07 nM,
"COC(=N)c1nc2ccc3ncnc(Nc4ccc(C(F)(F)F)cc4)c3c2s1 [Compound 8l, Methyl 9-(4-(trifluoromethyl)phenylamino)thiazolo[5,4-f]quinazoline-2-carbimidate]",54.8 nM,186 nM,
"COC(=N)c1nc2ccc3ncnc(Nc4ccccc4)c3c2s1 [Compound 9a, Methyl 9-(phenylamino)thiazolo[5,4-f]quinazoline-2-carbimidate]",1.81 nM,3.48 nM,
"COC(=N)c1nc2ccc3ncnc(Nc4ccc(C)cc4)c3c2s1 [Compound 9b, Methyl 9-(p-tolylamino)thiazolo[5,4-f]quinazoline-2-carbimidate]",0.98 nM,2.83 nM,
"COC(=N)c1nc2ccc3ncnc(Nc4ccc(C(C)(C)C)cc4)c3c2s1 [Compound 9c, Methyl 9-(4-tert-butylphenylamino)thiazolo[5,4-f]quinazoline-2-carbimidate]",39 nM,93.8 nM,
"C#Cc1cccc(Nc2ncnc3ccc4nc(C(=N)OC)sc4c23)c1 [Compound 9d, Methyl 9-(3-ethynylphenylamino)thiazolo[5,4-f]quinazoline-2-carbimidate]",40.8 nM,46.3 nM,
"COC(=N)c1nc2ccc3ncnc(Nc4ccc(C#N)cc4)c3c2s1 [Compound 9e, Methyl 9-(4-cyanophenylamino)thiazolo[5,4-f]quinazoline-2-carbimidate]",3.89 nM,7.69 nM,
"COC(=N)c1nc2ccc3ncnc(Nc4cccc(C#N)c4)c3c2s1 [Compound 9f, Methyl 9-(3-cyanophenylamino)thiazolo[5,4-f]quinazoline-2-carbimidate]",42.7 nM,72 nM,
"COC(=N)c1nc2ccc3ncnc(Nc4ccc(N(C)C)cc4)c3c2s1 [Compound 9h, Methyl 9-(4-(dimethylamino)phenylamino)thiazolo[5,4-f]quinazoline-2-carbimidate]",35.6 nM,64.3 nM,
"CCOC(=N)c1nc2ccc3ncnc(Nc4ccc5c(c4)OCO5)c3c2s1 [Compound 12a, Ethyl 9-(benzo[d][1,3]dioxol-5-ylamino)thiazolo[5,4-f]quinazoline-2-carbimidate]",6.02 nM,7.72 nM,
"CC(C)OC(=N)c1nc2ccc3ncnc(Nc4ccc5c(c4)OCO5)c3c2s1 [Compound 12b, Isopropyl 9-(benzo[d][1,3]dioxol-5-ylamino)thiazolo[5,4-f]quinazoline-2-carbimidate]",125 nM,218 nM,melting point: 224 to 226 °C
"N=C(OCc1ccccc1)c1nc2ccc3ncnc(Nc4ccc5c(c4)OCO5)c3c2s1 [Compound 12c, Benzyl 9-(benzo[d][1,3]dioxol-5-ylamino)thiazolo[5,4-f]quinazoline-2-carbimidate]",33.9 nM,37.3 nM,
"COC(=O)c1nc2ccc3ncnc(Nc4ccc5c(c4)OCO5)c3c2s1 [Compound 13, Methyl 9-(benzo[d][1,3]dioxol-5-ylamino)thiazolo[5,4-f]quinazoline-2-carboxylate]",,,"Affinity for DYRK1A, result in words ([1]; compared with parent methyl carbimidate / secondary amine analogs): mostly inactive"
"CC(C)(C)CNc1ncnc2ccc(-c3ccc4c(c3)OCO4)cc12 [NCGC-00189310, reference compound]",2.2 nM,20.6 nM,
